Entries after “also recorded” stand apart in the source; their conditions may differ. Read-outs that look alike come from different tables or passages of the source.
Assays:
[1] = test system: NCI-H929 multiple myeloma cells; experiment: Anti-proliferation assay, Cell Titer-Glo (Example 3); format: cell-based, human
Experimental: (§1) To determine the growth inhibitory activity of tris(8-quinolinolato)gallium(III) and lenalidomide, a representative panel of human multiple myeloma tumor cell lines (OPM-2, RPMI-8226, NCI-H929 and ARH-77) were tested with the compounds in anti-proliferation assays. Specifically, the human tumor cells were placed in a 96-well microculture plate at the appropriate density for 96 hours of total growth time. After 24 hours of incubation in a humidified incubator at 37° C. with 5% CO2 and 95% air, serially diluted test agents in growth medium were added to each well. After 96 total hours of culture in a CO2 incubator, the plates were processed with Cell Titer-Glo (Promega #G7571) according to manufacturer's instructions. Luminescence was detected using a Tecan GENios microplate reader. Percent inhibition of cell growth was calculated relative to untreated control wells. All tests were performed in duplicate at each concentration level.
(§2) The IC50 value for the test agents was estimated using Prism 3.03 by curve-fitting the data using the following four parameter-logistic equation: […]
(§3) where Top is the maximal % of control absorbance, Bottom is the minimal % of control absorbance at the highest agent concentration, Y is the % of control absorbance, X is the agent concentration, IC50 is the concentration of agent that inhibits cell growth by 50% compared to the control cells, and n is the slope of the curve.

[2] = test system: RPMI-8226 multiple myeloma cells; experiment: as above; format: cell-based, human; details: 96 hours total culture
Experimental: as §1, §2, §3

[3] = test system: OPM-2 multiple myeloma cells; experiment: as above; format: cell-based, human; details: 96 hours total culture
Experimental: as §1, §2, §3

[4] = test system: ARH-77 multiple myeloma cells; experiment: as above; format: cell-based, human; details: 96 hours total culture
Experimental: as §1, §2, §3

[5] = test system: Granta 519 Human Mantle Cell Lymphoma cells; experiment: Anti-proliferation assay, Cell Titer-Glo (Example 6); format: cell-based; details: 96 total hours of culture
Experimental: (§4) To determine the antiproliferative activity of tris(8-quinolinolato)gallium(III) in human lymphoma tumor cell lines, anti-proliferation assays were conducted in the DoHH2. Granta 519, and WSU-DLCL2 cell lines. The DoHH2 Human EBV-negative B Cell Lymphoma cells were seeded with 5,000 cells/well and grown in RPMI1640 medium containing 20% FBS, and 2 mM L-Glutamine. The Granta 519 Human Mantle Cell Lymphoma cells were seeded with 10,000 cells/well and grown in DMEM medium containing 10% FBS, and 2 mM L-Glutamine. The WSU-DLCL2 Human B Cell Lymphoma cells were seeded with 5,000 cells/well and grown in RPMI1640 medium containing 10% FBS, and 2 mM L-Glutamine. Specifically, the human tumor cells were placed in a 96-well microculture plate at the appropriate density for 96 hours of total growth time. After 24 hours of incubation in a humidified incubator at 37° C. with 5% CO2 and 95% air, serially diluted test agents in growth medium were added to each well. After 96 total hours of culture in a CO2 incubator, the plates were processed with Cell Titer-Glo (Promega #G7571) according to manufacturer's instructions. Luminescence was detected using a Tecan GENios microplate reader. Percent inhibition of cell growth was calculated relative to untreated control wells. All tests were performed in duplicate at each concentration level. The IC50 value for the test agents was estimated using Prism 3.03 by curve-fitting the data using the four parameter-logistic equation as described in Example 4 above. […] It is known that WSU-DLCL2 cells are resistant to the CHOP (cyclophosphamide, adriamycin, vincristine, prednisone) regimen. See Levi et al., Cancer Chemother. Pharmacal., (published online Aug. 31, 2010). Thus, tris(8-quinolinolato)gallium(III) is also active against lymphoma cells resistant to drugs. such as cyclophosphamide, adriamycin, vincristine, prednisone.

[6] = test system: DoHH2 Human EBV-negative B Cell Lymphoma cells; experiment: as above; format: cell-based; details: 96 total hours of culture
Experimental: as §4

[7] = test system: WSU-DLCL2 Human B Cell Lymphoma cells; experiment: as above; format: cell-based; details: 96 total hours of culture
Experimental: as §4

[8] = test system: caspase-5 gene expression in BJAB cells; experiment: Real-time PCR apoptosis gene expression array; format: cell-based, human; details: 2.5 μM, 8 hours
Experimental: (§5) For the analysis of the differential expression of multiple genes involved in the different apoptosis pathways, apoptosis-specific RT2 profiler (polymerase chain reaction) PCR expression arrays (SuperArray PAHS-012; SABiosciences Corporation, Frederick, Md., USA) was used according to the manufacturer's instructions. Total RNA was extracted from BJAB cells treated with […] for 8 hours, and RNAs were treated with DNase I (2 U/μl) to eliminate possible genomic DNA contamination. Total RNA (700 ng/μl) was then used as a template for the synthesis of a cDNA probe and subjected to quantitative real-time PCR SuperArray analysis according to the manufacturer's instructions using a LightCycler480 (Roche Diagnostics). The means of nine housekeeping genes were used to normalize the hybridization signals. Results were analyzed using SuperAnay Analyser Software, and the data are given in-fold expression of the respective genes as compared with control cells incubated in vehicle-containing medium for 8 hours.
(§6) Changes of transcript levels of apoptosis relevant genes were analyzed in RNA isolated from BJAB cells after 8 hours of incubation with 2.5 μM tris(8-quinolinolato)gallium(III). […] Harakiri (Hrk) is a pro-apoptotic Bcl-2 homology domain 3-only protein of the Bcl-2 family.

[9] = test system: Harakiri gene expression in BJAB cells; experiment: Real-time PCR apoptosis gene expression array; format: cell-based, human; details: 2.5 μM, 8 hours
Experimental: as §5, §6

[10] = test system: daunorubicin-resistant Nalm-6 cells; details: daunorubicin-resistant Nalm-6, P-gp overexpressing; 72 hours
Experimental: (§7) After 72 hours of incubation with different concentrations of the agent, DNA fragmentation was measured via FACS scan analysis. […] Values of DNA fragmentation are given as percentages of cells with hypodiploid DNA±s.d. (n=3);
(§8) Apoptotic cell death was determined by a modified cell cycle-analysis, which detects. DNA fragmentation on the single cell level. […] After a 72-hour incubation period at a temperature of 37° C., cells were collected by centrifugation at 1500 rpm for 5 min, washed with PBS at 4° C. and fixed in PBS/2% (v/v) formaldehyde on ice for 30 minutes. After fixation, cells were pelleted, incubated with ethanol/PBS (2:1, v/v) for 15 minutes, pelleted and resuspended in PBS containing 40 μg/ml RNase. RNA was digested for 30 minutes at a temperature of 37° C., after which the cells were pelleted again and finally resuspended in PBS containing 50 μg/ml propidium iodide. Nuclear DNA fragmentation was quantified by flow cytometric determination of hypodiploid DNA. Data were collected and analyzed using a FACScan instrument (Becton Dickinson, Heidelberg, Germany) equipped with CELL Quest software. Data are given in percent hypodiploidy (subG1), which reflects the number of apoptotic cells.

[11] = test system: BJAB lymphoma cells; experiment: Cell viability and proliferation, CASY Cell Counter; format: cell-based, human
Experimental: FIG. 1 is a graph showing cell viability and inhibition of proliferation of BJAB lymphoma cells by tris(8-quinolinolato)gallium(III), which inhibits proliferation in a dose-dependent manner up to 100% (exposure time 24 hours);
Cell viability was determined by using the CASY® Cell Counter+Analyzer System of Innovatis (Bielefeld, Germany). Settings were specifically defined for the requirements of the cells used. With this system the cell concentration can be analyzed simultaneously in three different size ranges: thus cell debris, dead cells, and viable cells could be determined in one measurement. Cells were seeded at a density of 1×10^5cells/ml and treated with different concentrations of […]; non-treated cells served as controls. After a 24-hour incubation period, cells were re-suspended completely, and 100 μl of each well were diluted in 10 ml CASYton (ready-to-use isotonic saline solution) for immediate automated counting.
In order to assess the antiproliferative effects of tris(8-quinolinolato)gallium(III), BJAB lymphoma cells were exposed to various concentrations of the drug for 24 hours. The determination of cell viability and cell count were carried out with a CASY® Cell Counter and Analyzer System.

[12] = test system: BJAB lymphoma cells; experiment: Apoptosis induction, flow cytometric hypodiploid DNA (DNA fragmentation); format: cell-based, human; details: 72 hours
Experimental: FIG. 3 is a diagram showing apoptosis induction measured via flow cytometric determination of hypodiploid DNA in BJAB cells after treatment with tris(8-quinolinolato)gallium(III) for 72 hours. Data are given in % hypodiploidy (subG1)±ESD (n=3), which is consistent with the number of apoptotic cells;
DNA fragmentation on the single cell level.
To quantify the induction of apoptosis triggered by tris(8-quinolinolato)gallium(III) we determined the DNA fragmentation (hypodiploidy) as a characteristic effect of apoptotic cell death. The procedure was conducted by flow cytometric measurement of hypodiploid DNA after incubating lymphoma cells (BJAB) for 72 hours with the agent. Extensive apoptosis induction could be reached even in low concentrations of the agent (AC50: ˜1 μM), seen in FIG. 3.

[13] = test system: vincristine-resistant Nalm-6 cells; details: vincristine-resistant Nalm-6, P-gp overexpressing; 72 hours
Experimental: as §7, §8

[14] = test system: BJAB lymphoma cells; experiment: LDH release cytotoxicity assay; format: cell-based, human; details: 1 hour exposure
Experimental: Cytotoxicity of the different drugs was measured by the release of lactate dehydrogenase (LDH). After incubation with different concentrations of tris(8-quinolinolato)gallium(III) for 1 hour, LDH activity released by BJAB cells was measured in the cell culture supernatants using the Cytotoxicity Detection Kit from Boehringer Mannheim® (Mannheim, Germany). The supernatants were centrifuged at 1500 rpm for 5 min. 20 μl of cell-free supernatants were diluted with 80 μl phosphate-buffered saline (PBS), and 100 μl reaction mixture containing 2-[4-iodophenyl]-3-[4-nitrophenyl]-5-phenyltetrazolium chloride (INT), sodium lactate, […] and diaphorase were added. Then, time-dependent formation of the reaction product was quantified photometrically at 490 nm. The maximum amount of LDH activity released by the cells was determined after lysis of the cells using 0.1% Triton X-100 in culture medium and set to represent 100% cell death.
Unspecific cytotoxic effects of the agent such as necrosis could be excluded by determination of extra cellular lactate dehydrogenase (LDH) via ELISA detection.

[15] = test system: MV4-11 leukemia cells; experiment: Cell growth inhibition, Cell Titer-Glo (Example 4); format: cell-based, human; details: 96 total hours of culture
Experimental: The human leukemia cell line MV4-11 cells were placed in a 96-well microculture plate (Costar white, flat bottom #3917) in a total volume of 90 μL/well. After 24 hours of incubation in a humidified incubator at 37° C. with 5% CO2 and 95% air, 10 μL of 10×, serially diluted tris(8-quinolinolato)gallium(III) in growth medium was added to each well. After 96 total hours of culture in a CO2 incubator, the plated cells and Cell Titer-Glo (Promega #G7571) reagents were brought to room temperature to equilibrate for 30 minutes. 100 μL of Cell Titer-Glo® reagent was added to each well. The plate was shaken for 2 minutes and then left to equilibrate for 10 minutes before reading luminescence on the Tecan GENios microplate reader. Percent inhibition of cell growth was calculated relative to untreated control wells. All tests were performed in duplicate at each concentration level. The IC50 value for the test agent was estimated using Prism 3.03 by curve-fitting the data using the following four parameter-logistic equation: […]
as §3, with “minimal” for “minimal %”, “curve. […]” for “curve.”

[16] = test system: caspase-9 and caspase-3 in BJAB cells; experiment: Western blot analysis of caspase activation; format: cell-based, human; details: 24 hours
Experimental: FIG. 6 includes chromatograms showing Western blot analysis of tris(8-quinolinolato)gallium(III)-treated BJAB cells. Epirubicin was used as a positive control. After incubation for 24 hours the protein extracts were fractionated on a denaturating 4-20% polyacrylamide gel, transferred to nitrocellulose and detected with anti-caspase-31-9 and anti-β-actin antibody. A: caspase-9 (procaspase: 47 kDa; cleavage product: 37 kDa), B: caspase-3 (procaspase: 32 kDa; cleavage products: 18 and 17 kDa), C: β-actin (42 kDa);
For Western blot analysis, cytosolic protein ([…]) was loaded in each lane and was separated by sodium dodecylsulfate (SDS) PAGE. After blotting of proteins onto nitrocellulose membranes (Schleicher and Schuell, Dassel, Germany), the membrane was blocked for 1 h in PBST (PBS containing 0.05% Tween-20) containing 3% nonfat dry milk and incubated with primary antibody overnight at 4° C. After the membrane had been washed three times in PBST, secondary antibody in PBST was applied for 1 h. […]
Further evidence for apoptosis via the intrinsic pathway was obtained by investigating the consecutive activation of caspase-9 and -3 by Western blot analysis. […] The activation of both caspases by proteolytic cleavage was determined after treatment of BJAB cells with tris(8-quinolinolato)gallium(III). […]

[17] = test system: CCRF-CEM, Jurkat, MOLT-4 cell lines; details: read-out: IC50, inhibiting cell growth and proliferation; all cell lines of Table 1; 48 hours with drug; XTT
Experimental: Cells have been expanded under appropriate culture conditions until sufficient cells were available for the assay. Adherent cells were trypsinated. Cell count and viability of the cells were determined (Casy T T, Schärfe Systems). The Cells (viability >95%) were seeded in 100 μl of cell culture medium at the appropriate density of living cells into 96-well tissue culture plates. The cells were incubated at 37° C. and 5% CO2 for 24 hours.
For a negative control, 100 μl of cell culture medium were added to three wells (100% value). For a positive control all cells were deadened with phenol (0% value). The cells were incubated with the drug for further 48 hours at 37° C. and 5% CO2.
XTT assays were performed on the above treated cells. XTT is a tetrazolium salt that can be cleaved by “succinate-tetrazolium reductase”, a mitochondrial redox-system that is exclusively active in living cells. The cleavage results in a soluble formazan salt that can be quantified by colorimetric measuring at 450 nm. The intensity of the orange color is directly linked to the number of living, metabolically active cells. A concentrated stock solution (1 mg/ml PBS) of XTT (Sigma-Aldrich) was prepared, aliquoted, filtered and stored at −20° C. […] The developed formazan was quantified in an absorbance micro plate reader (Genios, Tecan) at a measurement wavelength of 450 nm and a reference wavelength of 690 nm.

`Nc1cccc2c1CN(C1CCC(=O)NC1=O)C2=O` (stereo not drawn) [Lenalidomide, lenalidomide, reference compound] was tested, and the IC50 ([1]; Homo sapiens, NCI-H929, 96 hours total culture) was 5.28 µM, the IC50 [2] was “Inactive” and the IC50 ([3]; Homo sapiens) was 5.83 µM. For the same compound, the IC50 [4] was “Inactive”.
`[Ga+3].[O-]c1cccc2cccnc12.[O-]c1cccc2cccnc12.[O-]c1cccc2cccnc12` [tris(8-quinolinolato)gallium(III)] showed an IC50 [5] of 2900 nM, an IC50 [6] of 213 nM and an IC50 [7] of 1470 nM. The “caspase-5 gene expression, upregulation” value [8] was 118 fold, the “Harakiri gene expression, upregulation” value [9] was 29 fold and the “apoptosis (DNA fragmentation) in resistant cells versus control cells” value [10] was “higher apoptotic amounts in the resistant cells compared to the control cells”. For the same compound, the “concentration giving complete block of proliferation” value ([11]; 24 hours) was ≥ 2 µM, the IC50 ([11]; 24 hours, read-out: IC50, inhibition of proliferation) was < 1000 nM and the “inhibition of proliferation, maximal” value ([11]; exposure time 24 hours) was “up to 100%”. The AC50 [12] was ~1000 nM, the CC50 ([12]; read-out: LC50, apoptosis by DNA fragmentation) was ~1000 nM and the “apoptosis (DNA fragmentation) in resistant cells versus control cells” value [13] was “higher apoptotic amounts in the resistant cells compared to the control cells”. For the same compound, the “LDH release (unspecific cytotoxicity, necrosis)” value [14] was “negligible; also recorded: no significant LDH release”, the IC50 [15] was 1440 nM and the “processing of procaspase-3 and procaspase-9” value [16] was “induces processing of procaspase-3 (p32) and procaspase-9 (p47)”. For the same compound, the IC50 ([1]; 96 hours total culture) was 1.57 µM, the IC50 ([2]; read-out: IC50) was 820 nM and the IC50 [3] was 0.74 µM. The IC50 ([4]; read-out: IC50) was 890 nM and the IC50 [17] was < 3.5 µM.

Source: patent US20130116225A1, “METHOD FOR TREATING HEMATOLOGICAL CANCERS” (NIIKI PHARMA INC., priority 2010, published 2013)
